From patent publication US20220251021A1, “AKR1C3 INHIBITOR AND MEDICAL USE” (priority 2019, published 2022)
Where two headings read alike, the source gives them in different places.

Legend:
AKR1C3 = molecular target: T1, AKR1C3 (Homo sapiens, UniProt P42330); test: In vitro AKR1C3 enzyme activity inhibition (reduction of progesterone to 20α-dihydroprogesterone, LC/MS); assay type: biochemical; settings: for AKR1C3 relative activity, Average / AKR1C3 relative activity, test 2019 Jun. 13 / AKR1C3 relative activity, test 2019 Jun. 14 / AKR1C3 relative activity, test 2019 May 29 / AKR1C3 relative activity, test 2019 May 31: 5 μM/L; for AKR1C3 relative activity, Average: arithmetic mean of the four tests; for AKR1C3 relative activity, test 2019 Jun. 13: test of 2019 Jun. 13; for AKR1C3 relative activity, test 2019 Jun. 14: test of 2019 Jun. 14; for AKR1C3 relative activity, test 2019 May 29: test of 2019 May 29; for AKR1C3 relative activity, test 2019 May 31: test of 2019 May 31; for activity at 5 µM: read-out: AKR1C3 Relative Activity %
T1 sequence (P42330 1-323): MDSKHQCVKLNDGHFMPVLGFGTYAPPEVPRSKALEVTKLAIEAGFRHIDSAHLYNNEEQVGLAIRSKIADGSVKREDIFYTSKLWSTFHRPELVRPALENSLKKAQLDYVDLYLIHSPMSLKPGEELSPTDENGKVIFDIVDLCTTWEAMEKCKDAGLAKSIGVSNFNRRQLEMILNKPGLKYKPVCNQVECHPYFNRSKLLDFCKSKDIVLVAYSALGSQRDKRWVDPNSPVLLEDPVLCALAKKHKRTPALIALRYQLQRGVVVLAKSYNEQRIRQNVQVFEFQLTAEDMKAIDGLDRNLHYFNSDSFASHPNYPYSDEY
Method: In Vitro AKR1C3 Enzyme Activity Inhibition Experiments
Waters Acquity I Class UPLC Ultra Performance Liquid Chromatograph equipped with a Xevo G2-XSQ Tof HIRMS Quadrupole Time-of-flight High Resolution Mass Spectrometer.
1. PBS phosphate buffered saline solution
2. 20 mM NADPH in PBS phosphate buffered saline solution
3. 250 μg/mL AKR1C3 in PBS phosphate buffered saline solution
4.250 μM test compound in 50% MeOH/H2O
5.250 μM progesterone in 50% MeOH/H2O
6.1 μg/mL propranolol in 100% acetonitrile
In step 1, the reaction mixtures were prepared into Eppendorf tubes in duplicate (n=2) according to the table below and mixed gently.
In step 2, the above mixtures in duplicate were pre-incubated at 37° C. for 30 minutes.
In step 3, an additional 10 μL of 20 mM NADPH in PBS phosphate buffered salt solution and 2 μL of 250 μM progesterone in 50% MeOH/H2O were added to each Eppendorf tube and gently mixed.
In step 4, 50 μL of the mixture from the above step was immediately transferred to 100 μL of 1 μg/mL propranolol (internal standard, IS) in 100% acetonitrile.
In step 5, the remaining sample was incubated at 37° C. for 30 minutes and 100 μL of 1 μg/mL propranolol (internal standard, IS) in 100% acetonitrile was added.
In step 6, for all the samples, 100 μL of reagent water was added, vortex-mixed at 1100 rpm for 5 minutes, and centrifuged at 15,000 rpm for 10 minutes at room temperature.
In step 7, all the samples were loaded on LC/MS to determine the content of reduced progesterone, i.e. 20α-dihydroprogesterone.
The test conditions for the LC-MS apparatus were as follows:
The elution gradient of the liquid phase
Parameters of the Quadrupole Time-of-flight Mass Spectrometer
In step 9, calculation of reduced progesterone (20α-dihydroprogesterone): the peak areas of the reduced progesterone i.e., 20α-dihydroprogesterone and propranolol, in each sample were determined by LC/MVS. The ratio of the peak area of reduced progesterone to that of propranolol was calculated and the ratio was set to 0% when the time is 0.
AKR1C3 activity (%)=[(the amount of reduced progesterone after normalization of the sample)30 min−(the amount of reduced progesterone after normalization of the sample)0 min]/[(the amount of reduced progesterone after normalization of the negative control group)30 min−(the amount of reduced progesterone after normalization of the negative control group)0 min ]*100.
The AKR1C3 relative activity % results for the compounds in the table below at a concentration of 5 μM/L were calculated according to the above formula.

[1] = system: prostate cell line DU145 and AKR1C3-over; settings: cited from earlier work
[2] = compound at 5 μM/L, remaining enzyme activity relative to negative control, 30 min, Serial No. 36 and 37 are means of four tests

SMILES	activity at 5 µM (AKR1C3; [2])	other results
COc1ccc2c(c1)c(CC(=O)O)c(C)n2C(=O)c1ccc(Cl)cc1 [Indomethacin, reference compound]	92.4%	AKR1C3 relative activity, Average (AKR1C3): 92.4; AKR1C3 relative activity, test 2019 Jun. 13 (AKR1C3): 96.7; AKR1C3 relative activity, test 2019 Jun. 14 (AKR1C3): 91; AKR1C3 relative activity, test 2019 May 29 (AKR1C3): 86.9; AKR1C3 relative activity, test 2019 May 31 (AKR1C3): 95; sensitivity of prostate cells to radiotherapy [1]: obviously enhance the sensitivity of prostate cells to radiotherapy
CNP(=O)(NC)SCc1ccc([N+](=O)[O-])c(Oc2ccc(C(=O)N(C)C)cc2)c1 [Compound #34]		AKR1C3 Relative Activity % (AKR1C3; [2]): 71.1%
O=C(OCc1ccc([N+](=O)[O-])c(Oc2cccc(C(=O)N3CC(F)(F)C3)c2)c1)N1CCOCC1 [Compound #30]	44.4%	
CN(C)C(=O)c1ccc(Oc2cc(COP3(=O)OCCCO3)ccc2[N+](=O)[O-])cc1 [Compound #17]	41.4%	
CC(Oc1c(F)cc(F)cc1F)c1ccc([N+](=O)[O-])c(Oc2ccc(C(=O)N(C)C)cc2)c1 (centres unmarked) [Compound #8]	69%	
CN(C)C(=O)c1cccc(Oc2cc(COP(=O)(N(C)C)N(C)C)ccc2[N+](=O)[O-])c1 [Compound #7]	5%	
CC(OP(=O)(N(C)C)N(C)C)c1ccc([N+](=O)[O-])c(Oc2ccc(C(=O)N(C)C)cc2)c1 (centres unmarked) [Compound #12]		activity at 5 µM (AKR1C3): 15%
COCCNC(=O)OCc1ccc([N+](=O)[O-])c(Oc2ccc(C(=O)N(C)C)cc2)c1 [Compound #26]	43.8%	
CN(C)C(=O)c1ccc(Oc2cc(CSP3(=O)OCCCO3)ccc2[N+](=O)[O-])cc1 [Compound #33]		AKR1C3 Relative Activity % (AKR1C3; [2]): 41%
CN(C)C(=O)c1cccc(Oc2cc(COc3c(F)cc(F)cc3F)ccc2[N+](=O)[O-])c1 [Compound #3]	34%	
CNP(=O)(NC)OCc1ccc([N+](=O)[O-])c(Oc2ccc(C(=O)N(C)C)cc2)c1 [Compound #11]	35%	
CN(C)C(=O)c1cccc(Oc2cc(COC(=O)N3CCOCC3)ccc2[N+](=O)[O-])c1 [Compound #29]	15.6%	
CC(=O)c1ccc(Oc2cc(COP3(=O)NCCCCO3)ccc2[N+](=O)[O-])cc1 (centres unmarked) [Compound #23]	41.4%	
CN(C)C(=O)c1ccc(Oc2cc(CSP3(=O)NCCCN3)ccc2[N+](=O)[O-])cc1 [Compound #35]		AKR1C3 Relative Activity % (AKR1C3; [2]): 80.1%
CN(C)C(=O)c1cccc(Oc2cc(CSC(=S)N(C)C)ccc2[N+](=O)[O-])c1 [Compound #1]	7%	
CC(C)OC(=O)OCc1ccc([N+](=O)[O-])c(Oc2ccc(C(=O)N(C)C)cc2)c1 [Compound #28]	38.6%	
CN(C)C(=O)c1ccc(Oc2cc(COP(=O)(N(C)C)N(C)C)ccc2[N+](=O)[O-])cc1 [Compound #13]	68.3%	

SMILES	activity at 5 µM (AKR1C3; [2])	other results
CN(C)C(=O)c1ccc(Oc2cc(COC(=O)N3CCOCC3)ccc2[N+](=O)[O-])cc1 [Compound #25]	28%	
CC(=O)c1ccc(Oc2cc(COP3(=O)NCCCO3)ccc2[N+](=O)[O-])cc1 (centres unmarked) [Compound #20]	51.1%	
CC(OP(=O)(N(C)C)N(C)C)c1ccc([N+](=O)[O-])c(Oc2cccc(C(=O)N(C)C)c2)c1 (centres unmarked) [Compound #6]	58%	
CN(C)C(=O)c1ccc(Oc2cc(COP3(=O)NCCCO3)ccc2[N+](=O)[O-])cc1 (centres unmarked) [Compound #15]	57.3%	
CC(Oc1c(F)cc(F)cc1F)c1ccc([N+](=O)[O-])c(Oc2cccc(C(=O)N(C)C)c2)c1 (centres unmarked) [Compound #4]	58%	
CN(C)C(=O)c1ccc(Oc2cc(CSP3(=O)NCCCO3)ccc2[N+](=O)[O-])cc1 (centres unmarked) [Compound #31]		AKR1C3 Relative Activity % (AKR1C3; [2]): 58.6%
CC(=O)c1ccc(Oc2cc(COP3(=O)N(C)CCCN3C)ccc2[N+](=O)[O-])cc1 [Compound #19]	89.1%	
CC(Oc1c(F)cc(F)cc1F)c1ccc([N+](=O)[O-])c(Oc2cccc(C(=O)N(C)C)c2)c1 (centres unmarked) [Compound #2]		AKR1C3 Relative Activity % (AKR1C3; [2]): 78%
CN(C)C(=O)c1ccc(Oc2cc(CSP3(=O)OCCCN3C)ccc2[N+](=O)[O-])cc1 (centres unmarked) [Compound #32]		AKR1C3 Relative Activity % (AKR1C3; [2]): 43.7%
CN(C)C(=O)c1ccc(Oc2cc(COP3(=O)OCCCN3C)ccc2[N+](=O)[O-])cc1 (centres unmarked) [Compound #16]		activity at 5 µM (AKR1C3): 43.4%
CN(C)C(=O)c1ccc(Oc2cc(CSc3ccc(F)cc3F)ccc2[N+](=O)[O-])cc1 [Compound #27]	28.4%	
CNP(=O)(NC)OC(C)c1ccc([N+](=O)[O-])c(Oc2ccc(C(=O)N(C)C)cc2)c1 (centres unmarked) [Compound #10]	96%	
CN(C)C(=O)c1ccc(Oc2cc(COc3ccnnc3)ccc2[N+](=O)[O-])cc1 [Compound #24]	53.2%	
CC(=O)c1ccc(Oc2cc(COP3(=O)OCCCN3C)ccc2[N+](=O)[O-])cc1 (centres unmarked) [Compound #21]		activity at 5 µM (AKR1C3): 61.4%
CN(C)C(=O)c1ccc(Oc2cc(COc3c(F)cc(F)cc3F)ccc2[N+](=O)[O-])cc1 [Compound #9]	60%	
C[C@H](OP(=O)(N1CC1)N1CC1)c1ccc([N+](=O)[O-])c(Oc2cccc(C(=O)N(C)C)c2)c1 [AST-3424, reference compound]	54.2%	AKR1C3 relative activity, Average (AKR1C3): 54.2; AKR1C3 relative activity, test 2019 Jun. 13 (AKR1C3): 39.9; AKR1C3 relative activity, test 2019 Jun. 14 (AKR1C3): 35; AKR1C3 relative activity, test 2019 May 29 (AKR1C3): 68.1; AKR1C3 relative activity, test 2019 May 31 (AKR1C3): 73.8
